Data reported in patent EP2266984A1, “Pyrido[2,3-d]pyrimidines as Wnt antagonists for treatment of cancer and arthritis” (Deutsches Krebsforschungszentrum Stiftung des öffentlichen …, priority 2009, dated 2010).

What was measured:
Type in all cases: cell-based
Wnt signalling pathway = experiment: Wnt-sensitive reporter gene assay (6xTCF-luciferase, pTOP-FLASH) in Hek293T cells; details: for Normalized Wnt pathway inhibitory activity: 24 h; for IC50: Homo sapiens, HEK-293T, 6xTCF-luciferase, 5nM - 100 microM, 24 h incubation, read-out: IC50 of the Wnt pathway inhibitory activity
Method: To screen for small-molecule modulators of the Wnt signalling pathway, a reporter gene based assay describing the modulation of the TCF4 transcription factor was used. More specifically 4000 Hek293T cells were seeded into 384 high density plates. 24h after seeding a Wnt-sensitive reporter (6xTCF-luciferase (Firefly) (pTOP-FLASH; "Armadillo coactivates transcription driven by the product of the Drosophila segment polarity gene dTCF", Cell, 1997, 88(6), pages 789-99)) and constitutively expressed control reporter (Renilla luciferase pCMV-RL) were transfected into Hek293T. Wnt signaling was stimulated by cotransfecting mouse Wnt1, mouse Frizzled 8 and human LRP6 according to "Casein kinase 1 gamma couples Wnt receptor activation to cytoplasmic signal transduction", Nature, 2005, 438(7069), pages 867-872. 24 h after pathway stimulation compounds were added at a concentration of 10 microM and allowed to incubate for 24 h. For the evaluation of the IC50 the compound was applied in increasing concentrations yielding final concentrations per well of 5nM - 100 microM.

HepG2 = experiment: CellTiterGlo cytotoxicity assay in HepG2; details: 24h after compound addition
Method: For examination of cytotoxicity in these cancer cell lines the commercial available CellTiterGlo® Reagent (Promega, USA) was used according to the manufactor.
Compounds were applied to Hek293T (denoted (1)) or HepG2 (denoted (2)), cultured in Dulbecco's Modified Eagles Medium, supplemented with 10% fetal calf serum and 1% penicillin/streptomycin. Cells were grown in T75 flasks at 37 °C, 5% CO2 and trypsinized when 60-80% confluent by adding 2 ml of 0.25% Trypsin-EDTA solution. Cells were then re-suspended into culture medium yielding approx. 4000 cells (1) or 4500 cells (2), suspended in 30 microl medium. 48h after cell seeding, compounds were added to yield the desired final concentrations. 24h after compound addition cytotoxicity was evaluated. For this purpose the media was removed and CellTiterGlo® was added according to the manufactors manual. In this assay the luciferase emission readout is directly correlated with the cellular amount of ATP, low luciferase emission thus is reflecting cytotoxicity of a compound. For the evaluation of the IC50 the compound was applied in increasing concentrations yielding final concentrations per well of 5nM - 100 microM.

[1] = system: human colon carcinoma cells HCT116; experiment: Antiproliferative activity against HCT116, count of Hoechst labeled nuclei; details: for Normalized cell count (HCT 116): HCT116 colon carcinoma cells
Method: For examination of cell line-specific cytotoxicity, compounds were applied to human colorectal cancer cells (HCT116, denoted (1); SW480, denoted (2); Dld-1, denoted (3)) and human fibroblasts (HFF-1, denoted (4); HS-68, denoted (5)), cultured in Mc Coy's (1) and Dulbecco's Modified Eagles Medium ((2)-(5)), supplemented with 10% ((1)-(3)) and 20% ((4), (5)) fetal calf serum and 1% penicillin/streptomycin. Cells were grown in T75 flasks at 37 °C, 5% CO2 and trypsinized when 60-80% confluent by adding 2 ml of 0.25% Trypsin-EDTA solution. Cells were then re-suspended into culture medium yielding approx. 750 cells, suspended in 45 microl medium, were plated into each well of a black 384-well plate for fluorescence imaging experiments. 24 - 36 hr later 5 microl compound solution (100 microM compound dissolved in ultra pure water containing 1% DMSO), were added to achieve a final concentration of 10 microM and were incubated for at least 72 hr. Compound incubation was terminated by (a) fixation and (b) permeabilisation of cells, followed by (c) fluorescence labeling of cell nuclei for cytometric quantification or by immunocytochemistry for microscopic evaluation of cell morphology. The three steps were performed by replacing the solution of the previous step in each well of a 384-well plate by (a) 30 microl PBS (phosphate buffered saline) containing 5% PFA (paraformaldehyde), (b) 30 microl PBS containing 0.2% TritonX-100 and (c) 10 microl PBS containing Hoechst-33342 for cytometry or Hoechst-33342, FITC-(fluorescein isothiocyanate-)labeled alpha-tubulin antibodies and TRITC-(tetramethylrhodamine isothiocyanate-)labeled phalloidin for microscopy. Solutions were incubated for 15 (a,b) and 30 min (c) in the dark at room temperature. Cells were washed twice between each step with 30 microl PBS. The assay system was miniaturized and adapted to automated workflow using liquid-handling robotics.
Cell line-specific cytotoxicity was quantified by counting the number of Hoechst labeled nuclei per well of a 384-well plate using a plate cytometer. Data obtained with the cytometer was analysed using standard data analysis software. […]
The examination of the antiproliferative activity against human colon carcinoma cells HCT116 was carried out in analogy to example 203. […] Compounds of the present invention have potent antiproliferative acivity against human colon carcinoma cells as shown for HCT116 in Table 6.

| Structure (SMILES) | Normalized Wnt pathway inhibitory activity (Wnt signalling pathway; 0.005 microM) | Normalized Wnt pathway inhibitory activity (Wnt signalling pathway; 0.137 microM) | Normalized Wnt pathway inhibitory activity (Wnt signalling pathway; 0.412 microM) | Normalized Wnt pathway inhibitory activity (Wnt signalling pathway; 1.235 microM) | Normalized Wnt pathway inhibitory activity (Wnt signalling pathway; 3.704 microM) | Normalized Wnt pathway inhibitory activity (Wnt signalling pathway; 11.111 microM) | Normalized Wnt pathway inhibitory activity (Wnt signalling pathway; 33.333 microM) | Normalized Wnt pathway inhibitory activity (Wnt signalling pathway; 100.000 microM) | IC50 (Wnt signalling pathway) [µM] | Normalized toxicity values (HepG2) (HepG2; 0.005 microM) | Normalized toxicity values (HepG2) (HepG2; 0.015 microM) | Normalized toxicity values (HepG2) (HepG2; 0.046 microM) | Normalized toxicity values (HepG2) (HepG2; 0.137 microM) | Normalized toxicity values (HepG2) (HepG2; 0.412 microM) | Normalized toxicity values (HepG2) (HepG2; 1.235 microM) | Normalized toxicity values (HepG2) (HepG2; 3.704 microM) | Normalized toxicity values (HepG2) (HepG2; 11.111 microM) | Normalized toxicity values (HepG2) (HepG2; 33.333 microM) | Normalized toxicity values (HepG2) (HepG2; 100.000 microM) | Normalized cell count (HCT 116) ([1]; 0.005 microM) | also measured |
| --- | --- | --- | --- | --- | --- | --- | --- | --- | --- | --- | --- | --- | --- | --- | --- | --- | --- | --- | --- | --- | --- |
| CCOC(=O)c1c(C)nc2c(c(N3CCN(Cc4ccccc4F)CC3)nc(=O)n2-c2ccccc2)c1-c1ccccc1 [Example 150] | 0.8990 | 1.0310 | 0.8660 | 0.6448 | 0.3170 | 0.2795 | 0.1573 | 0.1708 | 1.6 ± 0.6 | 1.1325 | 1.1350 | 1.0275 | 1.0350 | 0.9625 | 0.9870 | 1.0658 | 1.0800 | 1.1425 | 1.2175 | 1 | Normalized Wnt pathway inhibitory activity (Wnt signalling pathway; 0.015 microM): 0.8480; Normalized Wnt pathway inhibitory activity (Wnt signalling pathway; 0.046 microM): 0.8763; Normalized cell count (HCT 116) ([1]; 0.015 microM): 1.076; Normalized cell count (HCT 116) ([1]; 0.046 microM): 1.153; Normalized cell count (HCT 116) ([1]; 0.137 microM): 1.2; Normalized cell count (HCT 116) ([1]; 0.412 microM): 1.087; Normalized cell count (HCT 116) ([1]; 1.235 microM): 1.105; Normalized cell count (HCT 116) ([1]; 3.704 microM): 0.8597; Normalized cell count (HCT 116) ([1]; 11.111 microM): 0.4595; Normalized cell count (HCT 116) ([1]; 33.333 microM): 0.1363; Normalized cell count (HCT 116) ([1]; 100.000 microM): 0.1263 |
| CCOC(=O)c1c(C)nc2c(c(N3CCN(C/C=C/c4ccccc4)CC3)nc(=O)n2-c2ccccc2)c1-c1ccccc1 [Example 153, 7-Methyl-2-oxo-1,5-diphenyl-4-[4-((E)-3-phenyl-allyl)-piperazin-1-yl]-1,2-dihydro-pyrido[2,3-d]pyrimidine-6-carboxylic acid ethyl ester] | 0.8000 | 0.9813 | 0.8173 | 0.5333 | 0.2410 | 0.1023 | 0.0518 | 0.0132 | 1.6 ± 0.9 | 1.0700 | 1.0658 | 0.9725 | 0.9743 | 0.9480 | 0.9543 | 1.1225 | 1.2725 | 1.2650 | 0.0718 | 1 | Normalized Wnt pathway inhibitory activity (Wnt signalling pathway; 0.046 microM): 1.0868; Normalized cell count (HCT 116) ([1]; 0.015 microM): 0.9124; Normalized cell count (HCT 116) ([1]; 0.046 microM): 0.9327; Normalized cell count (HCT 116) ([1]; 0.137 microM): 0.9534; Normalized cell count (HCT 116) ([1]; 0.412 microM): 0.8371; Normalized cell count (HCT 116) ([1]; 1.235 microM): 0.7255; Normalized cell count (HCT 116) ([1]; 3.704 microM): 0.538; Normalized cell count (HCT 116) ([1]; 11.111 microM): 0.1546; Normalized cell count (HCT 116) ([1]; 33.333 microM): 0.09126; Normalized cell count (HCT 116) ([1]; 100.000 microM): 0.1143; IC50 ([1]; Homo sapiens, HCT-116, HCT116, read-out: IC50 of the antiproliferation activity): 3.1 ± 0.6 µM |
| CCOC(=O)c1c(C)nc2c(c(N3CCN(C(c4ccc(F)cc4)c4ccc(F)cc4)CC3)nc(=O)n2-c2ccccc2)c1-c1ccccc1 [Example 157] | 0.9895 | 0.6610 | 1.2550 | 0.6557 | 0.3888 | 0.3733 | 0.1933 | 0.1651 | 1.9 ± 0.9 | 1.1125 | 1.0775 | 1.1275 | 1.0175 | 0.9413 | 0.9785 | 0.9853 | 1.0043 | 1.1100 | 1.1575 | 1 | Normalized Wnt pathway inhibitory activity (Wnt signalling pathway; 0.015 microM): 1.0328; Normalized cell count (HCT 116) ([1]; 0.015 microM): 1.101; Normalized cell count (HCT 116) ([1]; 0.046 microM): 1.031; Normalized cell count (HCT 116) ([1]; 0.137 microM): 1.151; Normalized cell count (HCT 116) ([1]; 0.412 microM): 1.072; Normalized cell count (HCT 116) ([1]; 1.235 microM): 0.9399; Normalized cell count (HCT 116) ([1]; 3.704 microM): 0.8282; Normalized cell count (HCT 116) ([1]; 11.111 microM): 0.7256; Normalized cell count (HCT 116) ([1]; 33.333 microM): 0.3684; Normalized cell count (HCT 116) ([1]; 100.000 microM): 0.2263 |
